# Source: patent publication US20240360133A1, “FUSED TRICYCLIC COMPOUND, PREPARATION METHOD THEREFOR AND APPLICATION THEREOF IN MEDICINE” (Jiangsu Hengrui Pharmaceuticals Co., Ltd., priority 2020, published 2024)
# Target: T1, human TLR7 (Homo sapiens, UniProt Q9NYK1)
# T1 construct: host or cells: HEK-Blue hTLR7 (HEK293)
# T1 sequence (Q9NYK1 27-1049): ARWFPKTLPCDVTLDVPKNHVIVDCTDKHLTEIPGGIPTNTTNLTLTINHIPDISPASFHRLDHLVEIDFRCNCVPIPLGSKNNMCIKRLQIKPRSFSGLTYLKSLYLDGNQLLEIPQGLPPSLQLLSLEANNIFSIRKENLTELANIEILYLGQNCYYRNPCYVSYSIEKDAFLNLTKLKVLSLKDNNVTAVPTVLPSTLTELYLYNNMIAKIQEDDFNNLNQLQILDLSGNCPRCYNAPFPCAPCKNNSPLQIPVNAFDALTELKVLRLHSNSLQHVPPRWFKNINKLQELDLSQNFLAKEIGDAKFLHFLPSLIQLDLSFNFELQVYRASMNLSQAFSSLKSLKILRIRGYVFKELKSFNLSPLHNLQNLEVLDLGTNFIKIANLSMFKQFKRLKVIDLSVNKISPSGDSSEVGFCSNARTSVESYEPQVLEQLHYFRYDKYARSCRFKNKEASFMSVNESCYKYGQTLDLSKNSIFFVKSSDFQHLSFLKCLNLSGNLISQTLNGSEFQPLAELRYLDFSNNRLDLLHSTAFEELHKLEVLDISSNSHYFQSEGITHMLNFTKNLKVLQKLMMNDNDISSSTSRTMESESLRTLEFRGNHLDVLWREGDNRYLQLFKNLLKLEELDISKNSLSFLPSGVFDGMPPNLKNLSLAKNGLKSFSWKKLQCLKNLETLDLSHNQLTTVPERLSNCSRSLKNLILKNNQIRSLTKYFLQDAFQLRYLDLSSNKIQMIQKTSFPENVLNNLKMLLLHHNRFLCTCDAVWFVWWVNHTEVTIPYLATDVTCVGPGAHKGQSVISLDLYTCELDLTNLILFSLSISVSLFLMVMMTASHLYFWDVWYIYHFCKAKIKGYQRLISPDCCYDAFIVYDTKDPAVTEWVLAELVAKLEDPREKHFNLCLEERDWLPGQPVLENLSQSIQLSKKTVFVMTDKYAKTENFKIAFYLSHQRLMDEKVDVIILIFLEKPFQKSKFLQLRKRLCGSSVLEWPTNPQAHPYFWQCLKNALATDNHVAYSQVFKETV
# Test: Inhibitory effect on human TLR7 activation pathway (HEK-Blue hTLR7 SEAP reporter)
# Assay type: cell-based
# Conditions: HEK-Blue hTLR7 cells, 1 μM resiquimod, 20 h, SEAP OD620
# Method: • 1. HEK-Blue™ hTLR7 cell (Invivogen) • 2. Resiquimod (R848, Invivogen) • 3. Alkaline phosphatase detection medium (Quanti-Blue Detection, Invivogen) • 4. Blasticidin (Invivogen) • 5. Zeocin (Invivogen) • 6. Normocin (Invivogen) • 7. DMEM/HIGH Glucose (GE Healthcare) • 8. Fetal bovine serum (FBS, Gibco) • 9. Phosphate-buffered saline (Shanghai BasalMedia Technologies Co., Ltd.) • 10. Sterile purified water (made in-house by Shanghai Hengrui) • 11. 15 mL centrifuge tube (Corning) • 12. %-well formulating plate (Corning) • 13. 96-well flat-bottom cell culture plate (Corning) • 14. Constant-temperature cell incubator (Thermo scientific) • 15. Constant-temperature incubator (Shanghai Yiheng Scientific Instruments Co., Ltd.) • 16. PHERAstar FS microplate reader (BMG Labtech)
# HEK-Blue™ hTLR7 cells were purchased from Invivogen. These cells are HEK293 cells transfected with the human Toll-like receptor 7 (TLR7) gene and the secreted alkaline phosphatase reporter gene (SEAP). The alkaline phosphatase reporter gene (SEAP) is under the regulation of the IFN—P minimal promoter comprising 5 NF-kB and AP-1 binding sites. Upon activation of TLR7 with an agonist, SEAP secretion is induced via downstream NF-kB and AP-1. After addition of an antagonist compound, the pathway described above is inhibited, and SEAP secretion is reduced. The activity of the compounds for the TLR7 pathway was evaluated by measuring OD620 through the SEAP substrate.
# 20 mM test compounds dissolved in 100% DMSO were serially diluted with 100% DMSO to 2000, 400, 80, 16, 3.2, 0.64, 0.128, 0.0256 μM, with blank wells containing 100% DMSO. The compounds and 100% DMSO were then 20-fold diluted in DMEM/HIGH glucose media containing 10% inactivated FBS (complete media, the same applies below). Resiquimod was diluted to 10 μM with sterile water. The 10 μM resiquimod dilution in sterile water was added to a 96-well cell culture plate at 20 μL/well. The above compounds diluted in complete media and 100% DMSO were then added at 20 μL/well to wells containing resiquimod, 20 μL of sterile water and 20 μL of 100% DMSO diluted in the complete medium were added to negative control wells.
# HEK-Blue™ hTLR7 cells were cultured in a DMEM/HIGH glucose medium containing 10% inactivated FBS, 100 μg/mL Normocin, 10 μg/mL blasticidin, and 100 μg/mL Zeocin. Cells that were in a good state of growth and had grown to 70%-80% were collected. The growth medium was discarded, 5-10 mL of PBS pre-heated at 37° C. was added to wash the cells once, and 2-5 mL of pre-heated PBS was added. The cells were cultured at 37° C. for 1-2 min, dispersed by pipetting, transferred to a 15 mL centrifuge tube, and counted, and the cell density was adjusted to 4.8-10′/mL with the complete medium. After density adjustment, 160 μL of the resulting cell suspension was added to the above 96-well cell culture plate to a final number of cells per well of 76,500/well. The final concentration of resiquimod was 1 μM, and the final concentrations of the test compounds were 10,000, 2000, 400, 80, 16, 3.2, 0.64, and 0.128 nM. The cells were cultured in a 37° C., 5% CO2 incubator for 20 h. Then 20 μL of the supernatant was added to 180 μL of the prepared alkaline phosphatase detection medium and incubated in the dark in a constant-temperature incubator at 37° C. for 120 min. Then the OD620 absorbance readings were taken on a microplate reader. The inhibition rate was calculated using the following formula: […]
# Inhibition curves were plotted using Graphpad Prism software according to the concentrations of the compounds and the corresponding inhibition rates, and the concentrations of the compounds at which the inhibition rate reached 50%, i.e., IC50 values, were calculated and are shown in Table 1.
row,Structure (SMILES),IC50 [nM]
1,"Cc1cc(-c2[nH]c3cc4c(nc3c2C(C)C)CNCC4)cc(C)n1 [Example 1, 2-(2,6-Dimethylpyridin-4-yl)-3-isopropyl-5,6,7,8-tetrahydro-1H-pyrrolo[3,2-b][1,7]naphthyridine]",7.7
2,"Cc1cc(-c2[nH]c3cc4c(nc3c2C(C)C)CN(C(C)C)CC4)cc(C)n1 [Example 2, 2-(2,6-Dimethylpyridin-4-yl)-3,6-diisopropyl-5,6,7,8-tetrahydro-1H-pyrrolo[3,2-b][1,7]naphthyridine]",29.9
3,"Cc1cc(-c2[nH]c3cc4c(nc3c2C(C)C)CN(CC23CCC(N)(CC2)CC3)CC4)cc(C)n1 [Example 7, 4-((2-(2,6-Dimethylpyridin-4-yl)-3-isopropyl-1,5,7,8-tetrahydro-6H-pyrrolo[3,2-b][1,7]naphthyridin-6-yl)methyl)bicyclo[2.2.2]octyl-1-amine]",7.1
4,"Cc1cc(-c2[nH]c3cc4c(nc3c2C(C)C)CN(CC(N)=O)CC4)cc(C)n1 [Example 8, 2-(2-(2,6-Dimethylpyridin-4-yl)-3-isopropyl-1,5,7,8-tetrahydro-6H-pyrrolo[3,2-b][1,7]naphthyridin-6-yl)acetamide]",18.2
5,"Cc1c(-c2[nH]c3cc4c(nc3c2C(C)C)CN(CC(N)=O)CC4)cn2ncnc2c1C [Example 10, 2-(2-(7,8-Dimethyl-[1,2,4]triazolo[1,5-a]pyridin-6-yl)-3-isopropyl-1,5,7,8-tetrahydro-6H-pyrrolo[3,2-b][1,7]naphthyridin-6-yl)acetamide]",21.5

# Compounds with a lower IC50, results first:
row,IC50 [nM],Structure (SMILES)
1,6.8,"Cc1cc(-c2[nH]c3cc4c(nc3c2C(C)C)CN(CCc2ccc(N3CCNCC3)nc2)CC4)cc(C)n1 [Example 4, 2-(2,6-Dimethylpyridin-4-yl)-3-isopropyl-6-(2-(6-(piperazin-4-yl)pyridin-3-yl)ethyl)-5,6,7,8-tetrahydro-1H-pyrrolo[3,2-b][1,7]naphthyridine]"
2,5.7,"Cc1cc(-c2[nH]c3cc4c(nc3c2C(C)C)CN(Cc2ccc(N3CCNCC3)cn2)CC4)cc(C)n1 [Example 5, 2-(2,6-Dimethylpyridin-4-yl)-3-isopropyl-6-((5-(piperazin-1-yl)pyridin-2-yl)methyl)-5,6,7,8-tetrahydro-1H-pyrrolo[3,2-b][1,7]naphthyridine]"
3,4.9,"Cc1c(-c2[nH]c3cc4c(nc3c2C(C)C)CNCC4)cn2ncnc2c1C [Example 9, 2-(7,8-Dimethyl-[1,2,4]triazolo[1,5-a]pyridin-6-yl)-3-isopropyl-5,6,7,8-tetrahydro-1H-pyrrolo[3,2-b][1,7]naphthyridine]"
